# “And” between values parts separate entries of the source, which are not always exact repeats. Identical values can stand only once.
# Molecular target: T1, human Factor VIIa (Homo sapiens, UniProt P08709)
# T1 construct: with about 1% of the total amount in the proteolytically active form factor VIIa; purchased Haematologic Technologies (plasma-purified) or Novo Nordisk (recombinant)
# Assay: Factor VIIa assay (hydrolysis of chromogenic substrate, Ki)
# Format: biochemical
# Conditions: several values in one cell = repeat determinations
# T1 sequence (P08709 213-466 limits assumed): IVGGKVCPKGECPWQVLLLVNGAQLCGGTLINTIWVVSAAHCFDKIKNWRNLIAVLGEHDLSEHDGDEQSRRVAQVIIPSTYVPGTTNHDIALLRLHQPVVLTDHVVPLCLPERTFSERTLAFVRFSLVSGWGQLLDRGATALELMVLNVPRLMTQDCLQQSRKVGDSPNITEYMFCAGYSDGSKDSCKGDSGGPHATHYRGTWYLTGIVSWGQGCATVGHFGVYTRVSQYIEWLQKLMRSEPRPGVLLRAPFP
# T1 sequence (P08709 61-212 limits assumed): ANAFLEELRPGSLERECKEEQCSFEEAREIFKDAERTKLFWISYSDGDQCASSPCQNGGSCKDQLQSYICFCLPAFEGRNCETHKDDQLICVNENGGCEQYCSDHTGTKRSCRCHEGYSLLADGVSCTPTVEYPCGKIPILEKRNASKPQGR
# T1 sequence (P13726 33-251 partner limits assumed): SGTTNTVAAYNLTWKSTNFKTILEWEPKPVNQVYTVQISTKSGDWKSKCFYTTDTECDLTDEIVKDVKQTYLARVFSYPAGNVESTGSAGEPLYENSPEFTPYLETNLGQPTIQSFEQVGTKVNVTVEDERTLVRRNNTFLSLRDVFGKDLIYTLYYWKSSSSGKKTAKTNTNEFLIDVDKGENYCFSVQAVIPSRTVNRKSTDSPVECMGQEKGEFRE
row,Ki,Structure (SMILES)
1,60 nM,"COc1cc([C@@H](Nc2ccc3c(c2)C(=O)NC3)C(=O)N2CC[C@H](C(=O)O)[C@@H]2c2ccccc2S(=O)(=O)C2CC2)ccc1F [Example 28, (2R,3S)-2-(2-(cyclopropylsulfonyl)phenyl)-1-((R)-2-(4-fluoro-3-methoxyphenyl)-2-(3-oxoisoindolin-5-ylamino)acetyl)pyrrolidine-3-carboxylic acid]"
2,41 nM and 88 nM,"CC[C@H]1CNC(=O)c2cc(NC(C(=O)N3CCC[C@@H]3c3cc(NC(=O)OC)ccc3S(=O)(=O)C(C)C)c3ccc(OC)c(OC)c3)ccc21 (single isomer, unassigned) [Example 18]"
3,> 13000 nM,"COC(=O)Nc1ccc(S(=O)(=O)C(C)C)c([C@H]2CCCN2C(=O)C(Nc2ccc(F)c3c2CNC3=O)c2ccc(OC)c(OC)c2)c1 (single isomer, unassigned) [Example 6]"
4,< 5 nM and 3.5 nM,"COC(=O)Nc1ccc(S(=O)(=O)C2CC2)c([C@H]2CCCN2C(=O)[C@H](Nc2ccc3nc[nH]c(=O)c3c2)c2ccc(F)c(OC)c2)c1 (single isomer, unassigned) [Example 22]"

# Source: patent US8039506B2, “Bicyclic lactam factor VIIa inhibitors useful as anticoagulants” (Bristol-Myers Squibb Company, priority 2006, dated 2011)
